Assays:
RAS G12D protein = biological target: T1, RAS G12D protein (Homo sapiens, UniProt P01116, G12D); test: Protein degradation study (western blot) in Aspc-1 cells; format: cell-based; conditions: for DC50: half-maximum degradation concentration on G12D in Aspc-1 cells; for percent protein degradation at 0.005 µM: 0.005 μM compound; for percent protein degradation at 0.05 µM: 0.05 μM compound; for Dmax: ASPC1
T1 construct: host or cells: Aspc-1 (AsPC-1) cells
Description: Aspc-1 (Cobioer, CBP60546) cells in exponential growth phase were inoculated on a 6-well cell culture plate (Corning, 3516) at density of 1E6/well; and cells in the plate were cultured in a 37° C. incubator containing 5%-carbon dioxide. The next day, test compounds were dissolved in DMSO (Sigma, RNBF5902) for the preparation of a 10-mM concentration stock solution. The stock solution was diluted with complete medium (RPMI-1640 supplemented with 10% fetal bovine serum, 1% penicillin-streptomycin), yielding working solutions of various concentrations. The plate, after the addition of compounds, was placed in a 5% carbon dioxide incubator, and incubated at 37° C. for 24 hours (final DMSO concentration was 0.1%). The plate was then removed from the incubator, and the cells were washed twice with precooled PBS (Gibco, 14190250), followed by addition of 80 μL RIPA (CST, 9806S) lysis buffer (containing protease inhibitor (Invitrogen™, AM2696)) to each well. The adherent cells were scraped off with a cell scraper, and the cell lysate was transferred to a 1.5 mL centrifuge tube followed with a 30-minute incubation on ice. The lysate was then clarified with centrifugation at 12000 rpm for 10 min at 4° C. The supernatant was transferred into a new 1.5 mL centrifuge tube, and protein concentration was measured with BCA protein detection kit (Thermo Fisher, 23225). G12D protein level was assessed by western blot. A mixture of cell lysate (40 μL) and loading buffer (10 μL, 5×SDS (Beyotime, P0015L)) was denatured in a water-bath at 95° C. for 10 min. The denatured protein sample, at 30 μg/well, was loaded into a corresponding well of a 4-20% Bis-Tris gel (Kingsley, M00656). Protein samples were initially electrophoresed at 80 V for 30 minutes, followed by 120 V for 40 minutes, until the bromophenol blue strip ran to an appropriate position. After electrophoresis, iBlot2 (Life Technologies, IB21001) was used to transfer the separated samples onto PVDF film. The PVDF membrane was washed with double-distilled water and then blocked in TBST (Thermo Scientific, 28360) buffer containing 5% non-fat milk, for 2 hours. Blocked membrane was rinsed with tris-buffered saline tween-2 (Thermo Scientific, 28360, TBST) three times, 10 minutes each. Membrane was then incubated with 1:1000 diluted RAS Gi2D primary antibody (CST, cat #14429S) overnight at 4° C. Membrane was rinsed in a way described previously followed by 1 hour incubation of secondary antibody at room temperature. After washing the film for three times with TBST, ECL color developing solution was applied, and image was captured with Biorad Chemi Doc gel imager. The band gray value was quantified (Image Lab), and protein degradation level was calculated according to the following formulas:
Level of RAS G12D protein expression=(RAS G12D−compound/β-Actin)−compound/(RAS G12D−DMSO/β-Actin−DMSO)
Level of degradation (%)=(1−Rate of RAS G12D protein expression)×100
Symbols of −, +, ++, +++, ++++, +++++ indicate that the degradation level of Ras protein induced by test compounds was 10% or less, 10 to 30%, 30 to 60%, 60 to 70%, 70 to 75%, and greater than 75%, respectively. “NT” indicates not tested.
“NT” indicates not tested.

NCI-H727 cells (G12V) = test: Cell proliferation study (Cell Titer Glo, 72 hours), NCI-H727; format: cell-based; conditions: Homo sapiens
Description: (§1) Aspc-1(Cobioer, CBP60546), GP2D(Cobioer, CBP60683), Mia paca2 (Cobioer, CBP60136), NCI-H358 (Cobioer, CBP60544), H727 (Cobioer, CBP60182), MKN-1 (Cobioer, CBP60486), and PSN1 (Cobioer, CBP61215) cells in exponential growth phase were seeded into a 96-well plate (Greiner, 655090) at density of 3E3/well. Cells were cultured overnight at 37° C. with 5% CO2. On the next day, cells were treated with compound at various concentrations for 72 hours in 37° C., 5% CO2 incubator (final DMSO concentration was 0.1%). After treatment, 100 μL Cell Tier Glo (Promega, G7573) were added to every well on the cell plate and incubated at room temperature (RT) for 10 minutes. Cell growth status was measured with Cell Tier Glo (Promega, G7573) following manufacturer's directions. Inhibition level was calculated according to the following formula: […]
(§2) where the “Maximum Signal” are signal of wells containing DMSO without compound; the “Minimum Signal” are signal of wells recorded at Day 0 prior to commencement of the experiment; and the “Test compound signal” are signal of wells containing compound at established concentrations.
(§3) The inhibition curve was obtained with GraphPad 7.0 software using four-parameter equation.

GP2D cells (G12D) = test: Cell proliferation study (Cell Titer Glo, 72 hours), GP2D; format: cell-based
Description: as §1, §2, §3

AsPc-1 cells (G12D) = test: Cell proliferation study (Cell Titer Glo, 72 hours), AsPc-1; format: cell-based; conditions: Homo sapiens, ASPC1
Description: as §1, §2, §3

PSN-1 cells (G12R) = test: Cell proliferation study (Cell Titer Glo, 72 hours), PSN-1; format: cell-based; conditions: Homo sapiens, PSN1
Description: as §1, §2, §3

MKN1 cells (WT) = test: Cell proliferation study (Cell Titer Glo, 72 hours), MKN1; format: cell-based; conditions: Homo sapiens, MKN-1
Description: as §1, §2, §3

NCI-H358 cells (G12C) = test: Cell proliferation study (Cell Titer Glo, 72 hours), NCI-H358; format: cell-based; conditions: Homo sapiens
Description: as §1, §2, §3

[1] = Pharmacokinetics in male ICR mice; format: in vivo; conditions: mouse, plasma, IV (3 mg/kg)
[2] = ASPC1, 24 h, Aspc-1 cells, 24 hours, read-out: Rate of protein degradation (%)

T1 sequence (P01116 1-188 isoform P01116-2 G12D): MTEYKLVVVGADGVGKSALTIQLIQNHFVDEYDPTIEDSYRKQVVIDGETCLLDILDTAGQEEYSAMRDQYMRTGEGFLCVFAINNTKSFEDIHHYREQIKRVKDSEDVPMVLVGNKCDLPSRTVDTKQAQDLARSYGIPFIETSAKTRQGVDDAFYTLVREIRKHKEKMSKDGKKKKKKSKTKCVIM

| percent protein degradation at 0.01 µM (RAS G12D protein; ASPC1, 24 h, 0.010 μM compound, Aspc-1 cells, 24 hours, read-out: Rate of protein degradation (%)) | percent protein degradation at 0.1 µM (RAS G12D protein; ASPC1, 24 h, 0.1 μM compound, Aspc-1 cells, 24 hours, read-out: Rate of protein degradation (%)) | DC50 (RAS G12D protein) | IC50 (NCI-H727 cells (G12V)) | IC50 (AsPc-1 cells (G12D)) | IC50 (MKN1 cells (WT)) | percent protein degradation at 0.001 µM (RAS G12D protein; ASPC1, 24 h, 1 nM compound, Aspc-1 cells, 24 hours, read-out: Rate of protein degradation (%)) | percent protein degradation at 0.005 µM (RAS G12D protein; [2]) | percent protein degradation at 0.05 µM (RAS G12D protein; [2]) | Dmax (RAS G12D protein; G12D in Aspc-1 cells) | IC50 (NCI-H358 cells (G12C)) | AUC(0-t) [1] | half-life [1] | DC50 ranking among test compounds (RAS G12D protein; G12D in Aspc-1 cells) | Structure (SMILES) | IC50 (GP2D cells (G12D)) | IC50 (PSN-1 cells (G12R)) |
| --- | --- | --- | --- | --- | --- | --- | --- | --- | --- | --- | --- | --- | --- | --- | --- | --- |
| 60 to 70% | 60 to 70% | 1 to 10 nM | 2.46 nM | 488 nM | 405 nM | – | – | – | – | – | – | – | – | CCc1c(F)ccc2cc(O)cc(-c3ncc4c(N5CCC[C@@](C)(O)C5)nc(OCC5(CN6CCC(C(=O)N7CCC8(CC7)CC(N7CCC(c9ccc%10c(C%11CCC(=O)NC%11=O)nn(C)c%10c9)CC7)C8)CC6)CC5)nc4c3F)c12 (some centres unmarked) [Compound 85] | 242 nM | 488 nM |
| – | – | < 1 nM | 4.45 nM | 12.4 nM | – | 70 to 75% | 70 to 75% | 30 to 60% | 73% | 64.8 nM | – | – | – | CCc1c(F)ccc2cc(O)cc(-c3ncc4c(N5CCC[C@@](C)(O)C5)nc(OCC5(CN6CCC7(CC6)CC(N6CCC(c8ccc9c(c8)CN(C8CCC(=O)NC8=O)C9=O)CC6)C7)CC5)nc4c3F)c12 (some centres unmarked) [Compound 130] | 0.219 nM | – |
| – | – | < 1 nM | 0.46 nM | 65.6 nM | – | – | – | – | 62% | 438 nM | 1280 ng·h/mL | 478 min | – | CCc1c(F)ccc2cc(O)cc(-c3ncc4c(N5CCC[C@@](C)(O)C5)nc(OCC5(CN6CCC7(CC6)CC(N6CCC(c8ccc9c%10c(cccc8%10)C(=O)N9C8CCC(=O)NC8=O)CC6)C7)CC5)nc4c3F)c12 (some centres unmarked) [Compound 137] | – | – |
| – | – | < 1 nM | 18.5 nM | 57.8 nM | – | – | > 75% | > 75% | 70% | 126 nM | – | – | lowest DC50 value | CCc1c(F)ccc2cc(O)cc(-c3ncc4c(N5CCC[C@]6(CCO6)C5)nc(OCC5(CN6CCC7(CC6)CC(N6CCC(c8ccc9c%10c(cccc8%10)C(=O)N9C8CCC(=O)NC8=O)CC6)C7)CC5)nc4c3F)c12 (some centres unmarked) [Compound 179a] | 0.123 nM | – |
| – | – | – | 45.8 nM | > 1000 nM | – | – | 70 to 75% | > 75% | – | > 1000 nM | – | – | – | C[C@@]1(O)CCCN(c2nc(OCC3(CN4CCC5(CC4)CC(N4CCC(c6ccc7c8c(cccc68)C(=O)N7C6CCC(=O)NC6=O)CC4)C5)CC3)nc3c(F)c(-c4cc(N)cc(Cl)c4C(F)(F)F)ncc23)C1 (some centres unmarked) [Compound 200] | 0.991 nM | – |
| – | – | < 1 nM | 2.09 nM | 4.98 nM | – | – | > 75% | > 75% | 80% | 9.92 nM | – | – | – | CCc1c(F)ccc2cc(O)cc(-c3ncc4c(N5CCC[C@]6(CCO6)C5)nc(OCC5(CN6CCC7(CC6)CC(N6CCC(c8ccc9c(C%10CCC(=O)NC%10=O)nn(C)c9c8)CC6)C7)CC5)nc4c3F)c12 (some centres unmarked) [Compound 201] | 0.256 nM | – |
| – | – | < 1 nM | 0.309 nM | 2.32 nM | – | – | 60 to 70% | > 75% | 78% | 6.24 nM | – | – | – | CCc1c(F)ccc2cc(O)cc(-c3ncc4c(N5CCC[C@]6(CCO6)C5)nc(OCC5(CN6CCC7(CC6)CC(N6CCC(c8cc9c(cc8F)c(C8CCC(=O)NC8=O)nn9C)CC6)C7)CC5)nc4c3F)c12 (some centres unmarked) [Compound 205] | 0.289 nM | – |
| – | – | – | – | 198 nM | – | – | 30 to 60% | 60 to 70% | – | – | – | – | – | CCc1c(F)ccc2cc(O)cc(-c3ncc4c(N5CCC[C@]6(CCO6)C5)nc(OCC5(CN6CC(C(=O)N7CCC(c8ccc9c(C%10CCC(=O)NC%10=O)nn(C)c9c8)CC7)C6)CC5)nc4c3F)c12 (some centres unmarked) [Compound 207] | 3.53 nM | – |
| – | – | 11 to 50 nM | 4.4 nM | 43.2 nM | – | – | 30 to 60% | 70 to 75% | 65% | 17.9 nM | – | – | – | CCc1c(F)ccc2cc(O)cc(-c3ncc4c(N5CCC[C@]6(CCO6)C5)nc(OCC5(CN6CCC7(CC6)CC(N6CCC(c8ccc9c(=O)n(C%10CCC(=O)NC%10=O)ccc9c8)CC6)C7)CC5)nc4c3F)c12 (some centres unmarked) [Compound 234] | – | – |
| – | – | 1 to 10 nM | 0.8 nM | 63.5 nM | – | – | 30 to 60% | > 75% | 71% | 10.3 nM | – | – | – | CCc1c(F)ccc2cc(O)cc(-c3ncc4c(N5CCC[C@@](C)(O)C5)nc(OCC5(CN6CCC7(CC6)CC(N6CCC(c8cc9c(cc8F)c(N8CCC(=O)NC8=O)nn9C)CC6)C7)CC5)nc4c3F)c12 [Compound 235] | – | – |
| – | – | – | – | – | – | – | 10 to 30% | 10 to 30% | – | – | – | – | – | CCc1c(F)ccc2cc(O)cc(-c3ncc4c(N5CCC[C@]6(CCO6)C5)nc(OCC5(CN6CCC(CN7Cc8cc9c(cc8C7)C(=O)N(C7CCC(=O)NC7=O)C9=O)CC6)CC5)nc4c3F)c12 (some centres unmarked) [Compound 237] | – | – |
| – | – | 11 to 50 nM | – | – | – | – | > 75% | 30 to 60% | 73% | – | – | – | – | CCc1cccc2cc(O)cc(-c3ncc4c(N5CCC[C@]6(CCO6)C5)nc(OCC5(CN6CCC7(CC6)CC(N6CCC(c8cc9c(cc8F)c(N8CCC(=O)NC8=O)nn9C)CC6)C7)CC5)nc4c3F)c12 [Compound 238] | – | – |
| – | – | 11 to 50 nM | – | – | – | – | 60 to 70% | 30 to 60% | 71% | – | – | – | – | Cn1nc(N2CCC(=O)NC2=O)c2cc(F)c(C3CCN(C4CC5(CCN(CC6(COc7nc(N8CCC[C@]9(CCO9)C8)c8cnc(-c9cc(O)cc%10ccc(F)c(F)c9%10)c(F)c8n7)CC6)CC5)C4)CC3)cc21 [Compound 241] | – | – |
| – | – | 1 to 10 nM | – | – | – | – | 30 to 60% | > 75% | 74% | – | – | – | – | CCc1c(F)ccc2cc(O)cc(-c3ncc4c(N5CCC[C@@](C)(O)C5)nc(OCC5(CN6CCC7(CC6)CC(N6CCC(c8cc9c(cc8F)c(N8CCC(=O)NC8=O)nn9C)C(F)(F)C6)C7)CC5)nc4c3F)c12 (some centres unmarked) [Compound 243] | – | – |
| – | – | – | – | – | – | – | 30 to 60% | 30 to 60% | – | – | – | – | – | CCc1c(F)ccc2cc(O)cc(-c3ncc4c(N5CCC[C@]6(CCO6)C5)nc(OCC5(CN6CCC(CN7CCC(c8ccc9ccn(C%10CCC(=O)NC%10=O)c(=O)c9c8)CC7)CC6)CC5)nc4c3F)c12 (some centres unmarked) [Compound 244] | – | – |
